# Reference: article PMC11191095, “QSAR Reveals Decreased Lipophilicity of Polar Residues Determines the Selectivity of Antimicrobial Peptide Activity” (ACS Omega, 2024)
# Where a SMILES comes first, the peptide text is derived from it.
# Legend:
# Test in all cases: microbe, parasite or virus in culture
# E. coli LEC001 = assay type: cell-based, Escherichia coli; settings: E. coli LEC001 (R)
# Procedure, shortened: (§1)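 Peptides 128→2 μg/mL, 2-fold series; inoculum ~5 × 10^5 CFU/mL from overnight culture (OD600 0.01, mixed 1:1). MHB non-cation-adjusted for bacteria, RPMI 1640 + 2% glucose for fungi. 37 °C, 20 h, OD600. MIC50/MIC90 at 50%/90% inhibition; n ≥ 3.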
# E. coli NCTC 12923 = assay type: cell-based, Escherichia coli; settings: E. coli NCTC 12923 (S)
# Procedure, shortened: as §1
# P. aeruginosa NCTC 13437 = assay type: cell-based, Pseudomonas aeruginosa; settings: P. aeruginosa NCTC 13437 (R)
# Procedure, shortened: as §1
# A. baumannii ATCC 17978 = assay type: cell-based, Acinetobacter baumannii; settings: A. baumannii ATCC 17978 (S)
# Procedure, shortened: as §1
# A. baumannii AYE = assay type: cell-based, Acinetobacter baumannii; settings: A. baumannii AYE (R)
# Procedure, shortened: as §1
# K. pneumoniae M6 = assay type: cell-based, Klebsiella pneumoniae; settings: K. pneumoniae M6 (S)
# Procedure, shortened: as §1
# K. pneumoniae NCTC 13368 = assay type: cell-based, Klebsiella pneumoniae; settings: K. pneumoniae NCTC 13368 (R)
# Procedure, shortened: as §1
# [1] = system: S. aureus (MRSA) NCTC 13616; assay type: cell-based, Staphylococcus aureus; settings: S. aureus (MRSA) NCTC 13616 (R)
# Procedure, shortened: as §1
# S. aureus (MRSA) USA300 = assay type: cell-based, Staphylococcus aureus; settings: S. aureus (MRSA) USA300 (R)
# Procedure, shortened: as §1
# [2] = system: S. aureus (MSSA) ATCC 9144; assay type: cell-based, Staphylococcus aureus; settings: S. aureus (MSSA) ATCC 9144 (S)
# Procedure, shortened: as §1
# C. auris TDG 1912 = assay type: cell-based, Candida auris; settings: C. auris TDG 1912
# Procedure, shortened: as §1
# C. albicans NCPF 3281 = assay type: cell-based; settings: C. albicans NCPF 3281
# Procedure, shortened: as §1
# C. glabrata NCPF 8018 = assay type: cell-based; settings: C. glabrata NCPF 8018
# Procedure, shortened: as §1
# C. krusei NCPF 3876 = assay type: cell-based; settings: C. krusei NCPF 3876
# Procedure, shortened: as §1
# [3] = system: C. parapsilosis NCPF 3209; assay type: cell-based; settings: C. parapsilosis NCPF 3209
# Procedure, shortened: as §1
# C. tropicalis NCPF 8760 = assay type: cell-based; settings: C. tropicalis NCPF 8760
# Procedure, shortened: as §1
# [4] = MHB, 37 °C, 20 h, OD600, min. three biological repeats
# [5] = 50% growth inhibition, RPMI 1640 + 2% glucose, 37 °C, 20 h
# [6] = 90% growth inhibition, RPMI 1640 + 2% glucose, 37 °C, 20 h
compound,measurement,setting,value
CC[C@H](C)[C@H](NC(=O)[C@H](CCCCN)NC(=O)[C@H](CC(C)C)NC(=O)[C@H](C)NC(=O)[C@H](C)NC(=O)[C@H](CCCCN)NC(=O)[C@H](CC(C)C)NC(=O)[C@H](C)NC(=O)[C@@H](N)CCCCN)C(=O)NCC(N)=O [CPF-P3-10a] (H-KALKAALKIG-NH2),Modal MIC,E. coli LEC001; [4],> 128 µg/mL
same,Modal MIC,E. coli LEC001; shown in µM,> 122 µM
same,Modal MIC,"E. coli NCTC 12923; MHB, ~5×10^5 CFU/mL, 37 °C, 20 h, OD600, min. three biological repeats",> 128 µg/mL
same,Modal MIC,E. coli NCTC 12923; shown in µM,> 122 µM
same,Modal MIC,P. aeruginosa NCTC 13437; [4],> 128 µg/mL
same,Modal MIC,P. aeruginosa NCTC 13437; shown in µM,> 122 µM
same,Modal MIC,A. baumannii ATCC 17978; [4],> 128 µg/mL
same,Modal MIC,A. baumannii ATCC 17978; shown in µM,> 122 µM
same,Modal MIC,A. baumannii AYE; [4],> 128 µg/mL
same,Modal MIC,A. baumannii AYE; shown in µM,> 122 µM
same,Modal MIC,K. pneumoniae M6; [4],> 128 µg/mL
same,Modal MIC,K. pneumoniae M6; shown in µM,> 122 µM
same,Modal MIC,K. pneumoniae NCTC 13368; [4],> 128 µg/mL
same,Modal MIC,K. pneumoniae NCTC 13368; shown in µM,> 122 µM
same,Modal MIC,[1]; [4],> 128 µg/mL
same,Modal MIC,[1]; shown in µM,> 122 µM
same,Modal MIC,S. aureus (MRSA) USA300; [4],> 128 µg/mL
same,Modal MIC,S. aureus (MRSA) USA300; shown in µM,> 122 µM
same,Modal MIC,[2]; [4],> 128 µg/mL
same,Modal MIC,[2]; shown in µM,> 122 µM
same,Modal MIC50,"C. auris TDG 1912; 50% growth inhibition, RPMI 1640 + 2% glucose, 37 °C, 20 h, OD600",> 128 µg/mL
same,Modal MIC90,"C. auris TDG 1912; 90% growth inhibition, RPMI 1640 + 2% glucose, 37 °C, 20 h, OD600",> 128 µg/mL
same,Modal MIC50,C. auris TDG 1912; shown in µM,> 122 µM
same,Modal MIC90,C. auris TDG 1912; shown in µM,> 122 µM
same,Modal MIC50,C. albicans NCPF 3281; [5],> 128 µg/mL
same,Modal MIC90,C. albicans NCPF 3281; [6],> 128 µg/mL
same,Modal MIC50,C. albicans NCPF 3281; shown in µM,> 122 µM
same,Modal MIC90,C. albicans NCPF 3281; shown in µM,> 122 µM
same,Modal MIC50,C. glabrata NCPF 8018; [5],> 128 µg/mL
same,Modal MIC90,C. glabrata NCPF 8018; [6],> 128 µg/mL
same,Modal MIC50,C. glabrata NCPF 8018; shown in µM,> 122 µM
same,Modal MIC90,C. glabrata NCPF 8018; shown in µM,> 122 µM
same,Modal MIC50,C. krusei NCPF 3876; [5],> 128 µg/mL
same,Modal MIC90,C. krusei NCPF 3876; [6],> 128 µg/mL
same,Modal MIC50,C. krusei NCPF 3876; shown in µM,> 122 µM
same,Modal MIC90,C. krusei NCPF 3876; shown in µM,> 122 µM
same,Modal MIC50,[3]; [5],> 128 µg/mL
same,Modal MIC90,[3]; [6],> 128 µg/mL
same,Modal MIC50,[3]; shown in µM,> 122 µM
same,Modal MIC90,[3]; shown in µM,> 122 µM
same,Modal MIC50,C. tropicalis NCPF 8760; [5],> 128 µg/mL
same,Modal MIC90,C. tropicalis NCPF 8760; [6],> 128 µg/mL
same,Modal MIC50,C. tropicalis NCPF 8760; shown in µM,> 122 µM
same,Modal MIC90,C. tropicalis NCPF 8760; shown in µM,> 122 µM
